According to patent publication US12156922B2, “Copper-containing complex and uses thereof” (Bar-Ilan University, priority 2017, dated 2024):
Where “and” joins values, the source holds several entries; their conditions need not be identical. Equal values may be shown once. Blank lines part the entries; values can stand above or below the molecule they belong to. No end group written: not given here. *: point of attachment. MTSSL = S-(1-oxyl-2,2,5,5-tetramethyl-2,5-dihydro-1H-pyrrol-3-yl)methyl methanesulfonothioate spin label conjugate, CC1(C)C=C(CS*)C(C)(C)N1[O]

Key:
[1] = UV-VIS titration of peptides with Cu(I), absorption at 265 nm; format: binding; conditions: for absorption at 265 nm upon addition of Cu(I) (Cu(I) binding): 3-20 molar equivalents of Cu(I)
Description: UV-Visible-IR absorption spectra were obtained using a Cary® Bio 100 spectrophotometer, or using a Chirascan™ spectrometer (Applied Photophysics), at room temperature with a 1 mm optical path-length cell. Acetone was used as a reference. Typically, peptides were measured at a concentration of 0.3 mg/ml. Difference absorption spectra were obtained for peptides titrated with Cu(I) from 200 to 600 nm with a step size and a bandwidth of 0.5 nm.
Cu(I) was added to peptide solutions in the form of tetrakis(acetonitrile)copper(I) hexafluorophosphate under nitrogen gas in order to preserve anaerobic conditions. No Cu(II) signal was observed by EPR, thereby confirming the purity of the Cu(I).
In order to gain further insight into Cu(I) coordination, UV-VIS measurements were performed on the various peptides (as described n the Materials and Methods section hereinabove).

[2] = UV-visible titration of ATSM-Cu(II) complex with Cu(II) chelators and peptides (311 nm / 465 nm); format: physicochemical; conditions: for molar equivalents sufficient/needed to remove copper from the ATSM-Cu(II) complex: 30% DMSO in 0.1 M phosphate buffer (pH 7.4)
Description: (§1) The stability of the ATSM-Cu(II) complex was tested by using UV-visible spectrophotometry. […] In order to confirm the dissociation of ATSM-Cu(II) complex or the formation of copper complex with ligands or copper chelation by ligands, the effect of ligands on ATSM-Cu(II) was also tested using electron paramagnetic resonance (EPR) spectroscopy.
Stock solutions of CuCl2 (10 mM), 1,10-phenanthroline (10 mM), IDA (10 mM), and L-histidine (10 mM), NTA (5 mM) and Pep1 (5 mM) were prepared in ultrapure water (Milli-Q®). Stock solutions (1 mM) of HAGAH, HGGH and HTGMK peptides were prepared by dissolution in 0.1 M phosphate buffer (pH 7.4).
In order to facilitate the solubility of ATSM-Cu(II) complex, all the measurements were carried out in 30% DMSO in 0.1 M phosphate buffer (pH 7.4), at physiological conditions.

[3] = EPR of ATSM-Cu(II) complex after addition of ligands; format: physicochemical; conditions: 0.1 mM ATSM-Cu(II), 4 molar equivalents of ligand; 30% DMSO, 0.1 M phosphate buffer (pH 7.4)
Description: as §1
The stability of ASTM-Cu(II) complex was further studied by EPR spectroscopy. 0.1 mM of ATSM-Cu(II) complex was prepared in 30% DMSO and 0.1 M phosphate buffer (pH 7.4).

[4] = Low temperature CW-EPR of Cu(II) binding to Ctr1 N-terminal peptides in KPi buffer; conditions: for percentage of Cu(II) bound to peptide (species other than 4O coordination): 130 K
Description: Continuous wave electron […] (CW-EPR) spectra were recorded using an Elexsys™ E500 spectrometer (Bruker) operating at 9.0-9.5 GHz, equipped with a super-high-sensitivity CW resonator. The spectra were recorded at room temperature (RT; 295±2 K) or at low temperature (130±5 K) at a microwave power of 20.0 mW, modulation amplitude of 1.0 G, time constant of 60 or 80 milliseconds, and receiver gain of 60.0 dB. The samples were measured in 0.8 mm or 1.0 mm capillary quartz tubes (VitroCom) at RT. Solutions that were measured at low temperature were mixed with 20% glycerol, and measured in a 3.0 mm or 4.0 mm Wilmad® quartz tube.
Simulation of CW-EPR spectra was performed using MATLAB, with the EasySpin™ toolbox, according to procedures described by Stoll & Schweiger [J Magn Reson 2006, 178:42-55]. In fitting a spectrum to a simulation, emphasis is placed on small peaks of in the region of under 3000G.
The abovementioned peptides Pep1-Pep5 were investigated by CW-EPR measurements at low temperature (130 K), in the presence of different concentrations of Cu(II). The data were subsequently incorporated into simulations using the EasySpin™ tool box, and the first coordination sphere of Cu(II) was determined for each peptide, according to procedures described in Peisach & Blumberg [Arch Biochem Biophys 1974, 165:691-708]. The experimental data and comparisons with simulated data (including parameters derived from the simulations) for peptides Pep1-Pep5, at a variety of peptide:Cu(II) molar ratios, are presented in FIGS. 7-11. FIG. 12 presents the experimental data and comparisons with simulated data for peptides Pep1-Pep5 at a peptide:Cu(II) molar ratio of 1:1.
The simulation for each peptide took into account two Cu(II) species. The first species corresponds to free Cu(II) ions in water, where Cu(II) is coordinated to four oxygen atoms (4O coordination), with g∥=2.39±0.005, A∥=154±2.0 G. The second species corresponds to Cu(II) that is bound to the peptide with coordination of 3N1O or 2N2O.

[5] = Reduction of Cu(II) to Cu(I) by ascorbate in the presence of peptide, followed by room temperature EPR intensity; conditions: 2 mM ascorbate, peptide:ascorbate:Cu(II) 1:2:2; for Cu(II) reduced: within 4000 seconds, room temperature
Description: For measuring Cu(II) reduction by EPR spectroscopy, 20 μl of aqueous CuCl2 solution (2 mM) was added to 20 μl of a solution of a tested peptide (1 mM). At time zero, 20 μl of ascorbic acid solution (2 mM) was added, and the solution was mixed under anaerobic conditions. Cu(II) EPR signal intensity (at the maximum EPR signal intensity (g⊥ position)) was measured as a function of time.
The effects of the mutations of the Pep2-Pep5 peptides on the reduction of Cu(II) to Cu(I) was then investigated, by evaluating the room temperature (RT) change in EPR intensity over time, as Cu(I) is EPR-silent. Reduction of Cu(II) was effected in the presence of 2 mM ascorbate (a peptide:ascorbate:Cu(II) molar ratio of 1:2:2). For comparison, the reduction of free Cu(II) in buffer was also measured.

[6] = peptide:Cu(II) molar ratio 1:0.4
[7] = peptide:Cu(II) molar ratio 1:0.6
[8] = peptide:Cu(II) molar ratio 1:0.8
[9] = peptide:Cu(II) molar ratio 1:1.4

Molecule: MTSSL-CMDHSHHMGASYMDSC-MTSSL (C(MTSSL)MDHSHHMGASYMDSC(MTSSL)-NH2; N-terminus assumed; SMILES CSCC[C@H](NC(=O)[C@H](Cc1c[nH]cn1)NC(=O)[C@H](Cc1c[nH]cn1)NC(=O)[C@H](CO)NC(=O)[C@H](Cc1c[nH]cn1)NC(=O)[C@H](CC(=O)O)NC(=O)[C@H](CCSC)NC(=O)[C@@H](N)CSSCC1=CC(C)(C)N([O])C1(C)C)C(=O)NCC(=O)N[C@@H](C)C(=O)N[C@@H](CO)C(=O)N[C@@H](Cc1ccc(O)cc1)C(=O)N[C@@H](CCSC)C(=O)N[C@@H](CC(=O)O)C(=O)N[C@@H](CO)C(=O)N[C@@H](CSSCC1=CC(C)(C)N([O])C1(C)C)C(N)=O) [Pep9]
absorption at 265 nm upon addition of Cu(I) (Cu(I) binding) [1]: did not change upon addition of Cu(I)

Molecule: O=C(O)CN(CC(=O)O)CC(=O)O [NTA, nitrilotriacetic acid]
molar equivalents sufficient/needed to remove copper from the ATSM-Cu(II) complex [2]: at least four molar equivalents
effect on electron paramagnetic spectrum of ATSM-Cu(II) complex [3]: induced significant changes

percentage of Cu(II) bound to peptide (species other than 4O coordination) [4, 6]: 75%
percentage of Cu(II) bound to peptide (species other than 4O coordination) [4, 7]: 75%
percentage of Cu(II) bound to peptide (species other than 4O coordination) [4, 8]: 75%
percentage of Cu(II) bound to peptide (species other than 4O coordination) [4, 9]: 40%
percentage of Cu(II) bound to peptide (species other than 4O coordination) ([4]; peptide:Cu(II) molar ratio 1:2): 40%
percentage of Cu(II) bound to peptide (species other than 4O coordination) ([4]; peptide:Cu(II) molar ratio 1:3): 30%
Molecule: MDHSHAMGMSYMDS (Pep5 peptide amino acid sequence)
reduction of Cu(II) compared with wild-type peptide [5]: more rapid than in the presence of Pep1

Molecule: N[C@@H](Cc1c[nH]cn1)C(=O)O [L-His, L-histidine]
molar equivalents sufficient/needed to remove copper from the ATSM-Cu(II) complex [2]: at least four molar equivalents
effect on electron paramagnetic spectrum of ATSM-Cu(II) complex [3]: induced significant changes

Molecule: HTGMK
molar equivalents sufficient/needed to remove copper from the ATSM-Cu(II) complex [2]: one molar equivalent

Molecule: O=C(O)CNCC(=O)O [IDA, Imino-diacetic acid]
molar equivalents sufficient/needed to remove copper from the ATSM-Cu(II) complex [2]: at least four molar equivalents
effect on electron paramagnetic spectrum of ATSM-Cu(II) complex [3]: induced significant changes

percentage of Cu(II) bound to peptide (species other than 4O coordination) [4, 6]: 70%
percentage of Cu(II) bound to peptide (species other than 4O coordination) [4, 7]: 80%
percentage of Cu(II) bound to peptide (species other than 4O coordination) [4, 8]: 85%
percentage of Cu(II) bound to peptide (species other than 4O coordination) ([4]; peptide:Cu(II) molar ratio 1:1): 90%
percentage of Cu(II) bound to peptide (species other than 4O coordination) [4, 9]: 92%
percentage of Cu(II) bound to peptide (species other than 4O coordination) ([4]; peptide:Cu(II) molar ratio 1:2): 94%
percentage of Cu(II) bound to peptide (species other than 4O coordination) ([4]; peptide:Cu(II) molar ratio 1:3): 97% and 100%
Molecule: MDHSAHMGMSYMDS (Pep4 peptide amino acid sequence)
reduction of Cu(II) compared with free Cu(II) ions [5]: more rapid than reduction of free Cu(II) ions
reduction of Cu(II) compared with wild-type peptide [5]: more rapid than in the presence of Pep1

Molecule: CN=C([S-])N/N=C(C)/C(C)=N/NC([S-])=NC.[Cu+2] [ATSM-Cu(II), Cu(II)-diacetyl-bis(N4-methylthiosemicarbazone)]
stability of ATSM-Cu(II) complex in the presence of Cu(II) ligands ([2]; overall conclusion from UV-visible and EPR): may be unstable in a cellular environment

Molecule: MTSSL-CMDHSHHAGMSYMDSC-MTSSL (C(MTSSL)MDHSHHAGMSYMDSC(MTSSL)-NH2; N-terminus assumed; SMILES CSCC[C@H](NC(=O)CNC(=O)[C@H](C)NC(=O)[C@H](Cc1c[nH]cn1)NC(=O)[C@H](Cc1c[nH]cn1)NC(=O)[C@H](CO)NC(=O)[C@H](Cc1c[nH]cn1)NC(=O)[C@H](CC(=O)O)NC(=O)[C@H](CCSC)NC(=O)[C@@H](N)CSSCC1=CC(C)(C)N([O])C1(C)C)C(=O)N[C@@H](CO)C(=O)N[C@@H](Cc1ccc(O)cc1)C(=O)N[C@@H](CCSC)C(=O)N[C@@H](CC(=O)O)C(=O)N[C@@H](CO)C(=O)N[C@@H](CSSCC1=CC(C)(C)N([O])C1(C)C)C(N)=O) [Pep8]
absorption at 265 nm upon addition of Cu(I) (Cu(I) binding) [1]: did not change upon addition of Cu(I)

Cu(II) bound to peptide ([4]; low Cu(II) concentrations): substantially all Cu(II) is bound
percentage of Cu(II) bound to peptide (species other than 4O coordination) ([4]; peptide:Cu(II) molar ratio 1:1): 80%
percentage of Cu(II) bound to peptide (species other than 4O coordination) [4, 9]: 70%
percentage of Cu(II) bound to peptide (species other than 4O coordination) ([4]; peptide:Cu(II) molar ratio 1:2): 70%
percentage of Cu(II) bound to peptide (species other than 4O coordination) ([4]; peptide:Cu(II) molar ratio 1:3): 70%
Molecule: MDHSHHMGMSYMDS (Pep1 peptide amino acid sequence)
Cu(II) reduced [5]: about 5%

percentage of Cu(II) bound to peptide (species other than 4O coordination) [4, 7]: 70%
percentage of Cu(II) bound to peptide (species other than 4O coordination) [4, 8]: 70%
percentage of Cu(II) bound to peptide (species other than 4O coordination) [4, 9]: 63%
percentage of Cu(II) bound to peptide (species other than 4O coordination) ([4]; peptide:Cu(II) molar ratio 1:2): 55%
percentage of Cu(II) bound to peptide (species other than 4O coordination) ([4]; peptide:Cu(II) molar ratio 1:3): 55%
Cu(I):peptide molar ratio at which binding occurred ([1]; titration with Cu(I)): exceeding 5.0
Molecule: MDASHHMGMSYMDS (Pep3 peptide amino acid sequence)
Cu(II) reduced [5]: about 5%

Molecule: MTSSL-CMDHSHHMGMSYADSC-MTSSL (C(MTSSL)MDHSHHMGMSYADSC(MTSSL)-NH2; N-terminus assumed; SMILES CSCC[C@H](NC(=O)CNC(=O)[C@H](CCSC)NC(=O)[C@H](Cc1c[nH]cn1)NC(=O)[C@H](Cc1c[nH]cn1)NC(=O)[C@H](CO)NC(=O)[C@H](Cc1c[nH]cn1)NC(=O)[C@H](CC(=O)O)NC(=O)[C@H](CCSC)NC(=O)[C@@H](N)CSSCC1=CC(C)(C)N([O])C1(C)C)C(=O)N[C@@H](CO)C(=O)N[C@@H](Cc1ccc(O)cc1)C(=O)N[C@@H](C)C(=O)N[C@@H](CC(=O)O)C(=O)N[C@@H](CO)C(=O)N[C@@H](CSSCC1=CC(C)(C)N([O])C1(C)C)C(N)=O) [Pep10]
absorption at 265 nm upon addition of Cu(I) (Cu(I) binding) [1]: did not change upon addition of Cu(I)

Molecule: c1cnc2c(c1)ccc1cccnc12 [1,10-phenanthroline]
molar equivalents sufficient/needed to remove copper from the ATSM-Cu(II) complex [2]: two molar equivalents
effect on electron paramagnetic spectrum of ATSM-Cu(II) complex [3]: induced significant changes

percentage of Cu(II) bound to peptide (species other than 4O coordination) [4, 6]: 60%
percentage of Cu(II) bound to peptide (species other than 4O coordination) [4, 7]: 80%
percentage of Cu(II) bound to peptide (species other than 4O coordination) [4, 8]: 85% and 80%
percentage of Cu(II) bound to peptide (species other than 4O coordination) ([4]; peptide:Cu(II) molar ratio 1:1): 70%
percentage of Cu(II) bound to peptide (species other than 4O coordination) [4, 9]: 60%
percentage of Cu(II) bound to peptide (species other than 4O coordination) ([4]; peptide:Cu(II) molar ratio 1:2): 62%
percentage of Cu(II) bound to peptide (species other than 4O coordination) ([4]; peptide:Cu(II) molar ratio 1:3): 58%
Molecule: MDHSHHMAMSYMDS (Pep2 peptide amino acid sequence)
Cu(II) reduced [5]: about 5%
